Experimental data reported in ChEMBL document CHEMBL5329153, “Is structural hybridization invoking new dimensions for antimalarial drug discovery research?” (RSC Med Chem, 2023).
Values after ≈ are worked out from the molar mass of the structure shown.

Tests used:
[1] = test system: Plasmodium falciparum; experiment: Antimalarial activity against Chloroquine resistant Plasmodium falciparum Dd2 assessed as parasitic growth inhibition measured after 3 days by ELISA assay; format: functional, organism-based; conditions: Dd2, 72 h
[2] = test system: Plasmodium falciparum; experiment: Antimalarial activity against Chloroquine sensitive Plasmodium falciparum 3D7 assessed as parasitic growth inhibition measured after 3 days by ELISA assay; format: functional, organism-based; conditions: 3D7, 72 h
[3] = test system: Plasmodium falciparum; experiment: Antimalarial activity against Chloroquine resistant Plasmodium falciparum assessed as parasitic growth inhibition by microscopic anlaysis; format: functional, organism-based
[4] = test system: Plasmodium falciparum; experiment: Antimalarial activity against Plasmodium falciparum 3D7 assessed as parasitic growth inhibition measured after 42 hrs by [3H]hypoxanthine incorporation assay; format: functional, organism-based
[5] = test system: Plasmodium falciparum; experiment: Antimalarial activity against Chloroquine sensitive Plasmodium falciparum assessed as parasitic growth inhibition; format: functional, organism-based
[6] = test system: Plasmodium falciparum; experiment: Antimalarial activity against Chloroquine-pyrimethamine resistant Plasmodium falciparum W2 assessed as parasitic growth inhibition measured after 48 hrs; format: functional, organism-based; conditions: W2, 48 h
[7] = test system: Plasmodium falciparum; experiment: Antimalarial activity against Chloroquine-pyrimethamine sensitive Plasmodium falciparum D6 assessed as parasitic growth inhibition measured after 48 hrs; format: functional, organism-based; conditions: D6, 48 h
[8] = test system: Plasmodium falciparum; experiment: Antimalarial activity against Plasmodium falciparum assessed as parasitic growth inhibition; format: functional, organism-based
[9] = test system: Plasmodium falciparum; experiment: Antimalarial activity against Chloroquine resistant Plasmodium falciparum W2 assessed as parasitic growth inhibition measured after 48 hrs by fluorescence based assay; format: functional, organism-based; conditions: W2, 48 h
[10] = test system: Plasmodium falciparum; experiment: Antimalarial activity against chloroquine sensitive Plasmodium falciparum 3D7 assessed as parasitic growth inhibition by SYBR Green I dye based assay; format: functional, organism-based
[11] = test system: Plasmodium falciparum; experiment: Antimalarial activity against Plasmodium falciparum K1 assessed as parasitic growth inhibition; format: functional, organism-based
[12] = test system: Plasmodium falciparum; experiment: Antimalarial activity against Plasmodium falciparum 3D7 assessed as parasitic growth inhibition; format: functional, organism-based
[13] = test system: Plasmodium falciparum; experiment: Antimalarial activity against Plasmodium falciparum Dd2 assessed as parasitic growth inhibition; format: functional, organism-based
[14] = test system: Hemozoin; experiment: Inhibition of beta-hematin formation
[15] = test system: Plasmodium falciparum; experiment: Antimalarial activity against Chloroquine sensitive Plasmodium falciparum RKL-2 assessed as parasitic growth inhibition measured after 36 to 40 hrs by Giemsa staining based assay; format: functional, organism-based
[16] = test system: Plasmodium falciparum; experiment: Antimalarial activity against Plasmodium falciparum 3D7 assessed as parasitic growth inhibition measured after 72 hrs by SYBR Green dye based assay; format: functional, organism-based; conditions: 3D7, 72 h
[17] = test system: Plasmodium falciparum; experiment: Antimalarial activity against Plasmodium falciparum female gametocytes assessed as parasitic growth inhibition; format: functional, organism-based
[18] = test system: Plasmodium falciparum; experiment: Antimalarial activity against Plasmodium falciparum male gametocytes assessed as parasitic growth inhibition; format: functional, organism-based

COc1cc(NC(C)CCCN)c2ncccc2c1 (configuration not stated) [PRIMAQUINE]
IC50 [1]: 4300 nM
IC50 [2]: 1500 nM

CCCCNC(=S)NNC(=O)c1cc(-c2ccc(F)cc2)nc2c(Cl)cc(C(F)(F)F)cc12
IC50 [3]: 0.28 µg/mL

COc1ccc2cc3[n+](cc2c1OCc1cn(-c2ccc(S(=O)(=O)Nc4ccc(Cl)cc4)cc2)nn1)CCc1cc2c(cc1-3)OCO2.[Cl-]
IC50 [4]: 0.1 µg/mL

CCc1nc(N)nc(N)c1-c1ccc(Cl)cc1 [PYRIMETHAMINE]
IC50 [5]: 0.25 µg/mL (≈ 1.01 µM)

COc1ccc2cc3[n+](cc2c1OCc1cn(-c2ccc(S(=O)(=O)Nc4ccc(F)cc4)cc2)nn1)CCc1cc2c(cc1-3)OCO2.[Cl-]
IC50 [4]: 0.15 µg/mL

N=C(N=C(N)N)SCCCCNc1ccnc2cc(C(F)(F)F)ccc12
IC50 [6]: 6060 nM
IC50 [7]: 2800 nM

Cc1nc2ccccc2c(C)c1C(=O)NNC(=S)Nc1ccc(Cl)c(Cl)c1
IC50 [8]: 0.19 µg/mL (≈ 0.453 µM)

COc1cccc(NC(=S)NNC(=O)c2c(C)nc3ccccc3c2C)c1
IC50 [8]: 0.1 µg/mL (≈ 0.263 µM)

O=C1c2cccc(N3CCOCC3)c2C(=O)N1CCCCNc1ccnc2cc(Cl)ccc12
IC50 [9]: 71 nM

COc1ccc2nc3cc(Cl)ccc3c(NCC3C(=O)c4ccc5c6c(ccc(c46)C3=O)C(=O)N(CCn3ccnc3)C5=O)c2c1
IC50 [10]: 8.44 nM

CC1=C(C(=O)Nc2ccc(Br)cn2)C(c2cn(-c3ccccc3)nc2-c2ccc(F)cc2)NC(=O)N1 (configuration not stated)
IC50 [5]: 0.07 µg/mL (≈ 0.128 µM)

CCNC(=S)NNC(=O)c1c(C)nc2ccccc2c1C
IC50 [8]: 0.15 µg/mL (≈ 0.496 µM)

Cc1nc2ccccc2c(C)c1C(=O)NNC(=S)NC(C)(C)C
IC50 [8]: 0.25 µg/mL (≈ 0.757 µM)

COc1cc(NC(C)CCCNC(=O)c2ccc(C(=O)NO)cc2)c2ncccc2c1 (configuration not stated)
IC50 [1]: 1200 nM
IC50 [2]: 600 nM

O=C1c2cccc(N3CCOCC3)c2C(=O)N1CCCCCCNc1ccnc2cc(Cl)ccc12
IC50 [9]: 25 nM

C[C@H]1[C@H](OC(=O)CCC(=O)OCCNc2ccnc3cc(Cl)ccc23)O[C@@H]2O[C@]3(C)CC[C@H]4[C@H](C)CC[C@@H]1[C@@]24OO3
EC50 [11]: 1.7 nM
EC50 [12]: 4.5 nM
EC50 [13]: 2.3 nM

COc1ccc(OC)c2c1CC(Nc1ccnc3cc(Cl)ccc13)C2
IC50 [14]: 480 nM

C=C[C@H]1CN2CC[C@H]1C[C@H]2[C@H](O)c1ccnc2ccc(OC)cc12 [QUININE]
IC50 [3]: 0.268 µg/mL

O=C1c2ccc(N3CCN(CCO)CC3)cc2C(=O)N1CCCCNc1ccnc2cc(Cl)ccc12
IC50 [9]: 14 nM

CC.Fc1ccc(Nc2nc(NCCCNc3ccnc4cc(Cl)ccc34)nc(Nc3ccc(F)cc3)n2)cc1
IC50 [15]: 51.5 µg/mL

O=C1c2ccc(N3CCOCC3)cc2C(=O)N1CCCCNc1ccnc2cc(Cl)ccc12
IC50 [9]: 49 nM

Cc1nc2ccccc2c(C)c1C(=O)NNC(N)=S
IC50 [8]: 0.19 µg/mL (≈ 0.693 µM)

Clc1ccc2c(NCCCNc3nc(Nc4ccc(N5CCOCC5)cc4)nc(Nc4ccc(N5CCOCC5)cc4)n3)ccnc2c1
IC50 [15]: 47.5 µg/mL (≈ 71.2 µM)

O=C1c2cccc(N3CCCCC3)c2C(=O)N1CCCCNc1ccnc2cc(Cl)ccc12
IC50 [9]: 51 nM

O=C1c2ccc(N3CCCCC3)cc2C(=O)N1CCCCNc1ccnc2cc(Cl)ccc12
IC50 [9]: 77 nM

CC1=C(C(=O)Nc2ccc(Br)cn2)C(c2cn(-c3ccccc3)nc2-c2ccc([N+](=O)[O-])cc2)NC(=O)N1 (configuration not stated)
IC50 [5]: 0.06 µg/mL (≈ 0.104 µM)

Fc1ccc(Nc2nc(NCCCNc3ccnc4cc(Cl)ccc34)nc(Nc3ccc(F)c(Cl)c3)n2)cc1Cl
IC50 [15]: 56 µg/mL (≈ 93 µM)

C[C@H]1[C@@H](OCCCc2cn(-c3cccc4cc(Cl)ccc34)nn2)O[C@@H]2O[C@]3(C)CC[C@H]4[C@H](C)CC[C@@H]1[C@@]24OO3
EC50 [11]: 3.8 nM
EC50 [12]: 9.4 nM
EC50 [13]: 5.1 nM

O=C(NNC(=S)Nc1cc(Cl)cc(Cl)c1)c1cc(-c2ccc(F)cc2F)nc2cc(Cl)c(F)cc12
IC50 [3]: 0.17 µg/mL

CC1=C(C(=O)Nc2ccc(Br)cn2)C(c2cn(-c3ccccc3)nc2-c2ccc(Cl)cc2)NC(=O)N1 (configuration not stated)
IC50 [5]: 0.03 µg/mL (≈ 0.0532 µM)

C[C@H]1[C@@H](OCc2cn(-c3cccc4cc(Cl)ccc34)nn2)O[C@@H]2O[C@]3(C)CC[C@H]4[C@H](C)CC[C@@H]1[C@@]24OO3
EC50 [11]: 4.3 nM
EC50 [12]: 9 nM
EC50 [13]: 5.9 nM

O=C1c2ccc(N3CCOCC3)cc2C(=O)N1CCCCCCNc1ccnc2cc(Cl)ccc12
IC50 [9]: 19 nM

C[C@H]1[C@H](OC(=O)CCC(=O)OCCCc2cn(-c3ccnc4cc(Cl)ccc34)nn2)O[C@@H]2O[C@]3(C)CC[C@H]4[C@H](C)CC[C@@H]1[C@@]24OO3
EC50 [11]: 2.4 nM
EC50 [12]: 5.4 nM
EC50 [13]: 4.6 nM

N=C(N=C(N)N)SCCNc1ccnc2cc(C(F)(F)F)ccc12
IC50 [6]: 2950 nM
IC50 [7]: 1860 nM

O=C1c2ccc(N3CCN(CCO)CC3)cc2C(=O)N1CCNc1ccnc2cc(Cl)ccc12
IC50 [9]: 44 nM

CCN(CC)CCCC(C)Nc1ccnc2cc(Cl)ccc12 (configuration not stated) [CHLOROQUINE]
EC50 [11]: 303 nM
EC50 [12]: 12.7 nM
IC50 [14]: 180 nM
EC50 [16]: 9.8 nM
EC50 [13]: 165 nM

OC(c1cc(C(F)(F)F)nc2c(C(F)(F)F)cccc12)C1CCCCN1 (configuration not stated) [MEFLOQUINE]
IC50 [17]: 5600 nM
IC50 [18]: 16500 nM

C[C@H]1[C@H](OC(=O)CCC(=O)Nc2cccc3ncnc(Nc4ccc(Cl)c(Cl)c4)c23)O[C@@H]2O[C@@]3(C)CC[C@H]4[C@H](C)CC[C@@H]1[C@@]24OO3
EC50 [16]: 1.4 nM

N=C(N=C(N)N)SCCCNc1ccnc2cc(C(F)(F)F)ccc12
IC50 [6]: 3210 nM
IC50 [7]: 2850 nM

COc1ccc2nc3cc(Cl)ccc3c(NCC3C(=O)c4ccc5c6c(ccc(c46)C3=O)C(=O)N(CN(C)C)C5=O)c2c1
IC50 [10]: 4.33 nM

CC1=C(C(=O)Nc2ccc(Br)cn2)C(c2cn(-c3ccccc3)nc2-c2ccc(C)cc2)NC(=O)N1 (configuration not stated)
IC50 [5]: 0.08 µg/mL (≈ 0.147 µM)

O=C(NNC(=S)Nc1c(F)cccc1F)c1cc(-c2ccccc2Br)nc2c(Cl)cc(C(F)(F)F)cc12
IC50 [3]: 0.36 µg/mL

COc1cc2c(cc1OC)CC(Nc1ccnc3cc(Cl)ccc13)C2
IC50 [14]: 390 nM

CC1=C(C(=O)Nc2ccccn2)C(c2cn(-c3ccccc3)nc2-c2ccc(F)cc2)NC(=O)N1 (configuration not stated)
IC50 [5]: 0.03 µg/mL (≈ 0.064 µM)

Cc1nc2ccccc2c(C)c1C(=O)NNC(=S)Nc1ccc([N+](=O)[O-])cc1
IC50 [8]: 0.25 µg/mL (≈ 0.632 µM)

CCCCN1C(=O)c2ccc3c4c(ccc(c24)C1=O)C(=O)C(CCNc1c2ccc(Cl)cc2nc2ccc(OC)cc12)C3=O
IC50 [10]: 3.89 nM

Cc1nc(-c2ccccc2)c(-c2ccccc2)c2cc(-c3cn(CCOC(=O)CCC(=O)O[C@@H]4O[C@@H]5O[C@]6(C)CC[C@H]7[C@H](C)CC[C@@H]([C@H]4C)[C@@]57OO6)nn3)ccc12
EC50 [11]: 3.3 nM
EC50 [12]: 5.3 nM
EC50 [13]: 4.8 nM

CCCN1C(=O)c2ccc3c4c(ccc(c24)C1=O)C(=O)C(CNc1c2ccc(Cl)cc2nc2ccc(OC)cc12)C3=O
IC50 [10]: 3.65 nM

C[C@H]1[C@H](OC(=O)CCC(=O)OCc2cn(-c3ccnc4cc(Cl)ccc34)nn2)O[C@@H]2O[C@]3(C)CC[C@H]4[C@H](C)CC[C@@H]1[C@@]24OO3 (racemic)
EC50 [11]: 1.8 nM
EC50 [12]: 5.3 nM
EC50 [13]: 4.2 nM

Cc1nc2ccccc2c(C)c1C(=O)NNC(=S)Nc1ccc(F)cc1F
IC50 [8]: 0.26 µg/mL (≈ 0.673 µM)

COc1cc(NC(C)CCCNC(=O)CCCC(=O)NO)c2ncccc2c1 (configuration not stated)
IC50 [1]: 1900 nM
IC50 [2]: 400 nM

CCCCNc1c2ccc(Cl)cc2nc2ccc(OC)cc12
IC50 [10]: 26.4 nM

O=C1c2ccc(N3CCN(CCO)CC3)cc2C(=O)N1CCCCCCNc1ccnc2cc(Cl)ccc12
IC50 [9]: 15 nM

O=C(NNC(=S)Nc1ccccc1)c1cc(-c2c(F)cccc2F)nc2ccc(C(F)(F)F)cc12
IC50 [3]: 0.19 µg/mL

Cc1nc2ccccc2c(C)c1C(=O)NNC(=S)Nc1ccc(Cl)cc1
IC50 [8]: 0.15 µg/mL (≈ 0.39 µM)

N=C(N=C(N)N)SCCNc1ccnc2cc(Cl)ccc12
IC50 [6]: 3710 nM
IC50 [7]: 2250 nM

C[C@H]1[C@H](OC(=O)CCC(=O)Oc2ccc(Nc3ncnc4ccccc34)cc2)O[C@@H]2O[C@@]3(C)CC[C@H]4[C@H](C)CC[C@@H]1[C@@]24OO3
EC50 [16]: 3.8 nM

N=C(N=C(N)N)SCCCNc1ccnc2cc(Cl)ccc12
IC50 [6]: 2310 nM
IC50 [7]: 1560 nM

O=C1c2cccc(N3CCCCC3)c2C(=O)N1CCCCCCNc1ccnc2cc(Cl)ccc12
IC50 [9]: 75 nM

C[C@H]1[C@H](OC(=O)CCC(=O)OCCCCc2cn(-c3ccnc4cc(Cl)ccc34)nn2)O[C@@H]2O[C@]3(C)CC[C@H]4[C@H](C)CC[C@@H]1[C@@]24OO3
EC50 [11]: 2.5 nM
EC50 [12]: 6.2 nM
EC50 [13]: 4.4 nM
